Laboratory results as given in patent US20100168038A1, “USE OF COMPOUNDS IN COMBINATION WITH GAMMA-IRRADIATION FOR THE TREATMENT OF CANCER” (priority 2006, published 2010).
“And” between values parts separate entries of the source, which are not always exact repeats. Equal entries are not always repeated. Residues, ends and D or L forms follow the SMILES beside them.

Target: T1, TPP II (Mus musculus, UniProt Q64514)
T1 construct: 1 ug of high molecular weight protein was used as enzyme in peptidase assays; endogenous in cells
T1 sequence (Q64514 2-1262 limits assumed): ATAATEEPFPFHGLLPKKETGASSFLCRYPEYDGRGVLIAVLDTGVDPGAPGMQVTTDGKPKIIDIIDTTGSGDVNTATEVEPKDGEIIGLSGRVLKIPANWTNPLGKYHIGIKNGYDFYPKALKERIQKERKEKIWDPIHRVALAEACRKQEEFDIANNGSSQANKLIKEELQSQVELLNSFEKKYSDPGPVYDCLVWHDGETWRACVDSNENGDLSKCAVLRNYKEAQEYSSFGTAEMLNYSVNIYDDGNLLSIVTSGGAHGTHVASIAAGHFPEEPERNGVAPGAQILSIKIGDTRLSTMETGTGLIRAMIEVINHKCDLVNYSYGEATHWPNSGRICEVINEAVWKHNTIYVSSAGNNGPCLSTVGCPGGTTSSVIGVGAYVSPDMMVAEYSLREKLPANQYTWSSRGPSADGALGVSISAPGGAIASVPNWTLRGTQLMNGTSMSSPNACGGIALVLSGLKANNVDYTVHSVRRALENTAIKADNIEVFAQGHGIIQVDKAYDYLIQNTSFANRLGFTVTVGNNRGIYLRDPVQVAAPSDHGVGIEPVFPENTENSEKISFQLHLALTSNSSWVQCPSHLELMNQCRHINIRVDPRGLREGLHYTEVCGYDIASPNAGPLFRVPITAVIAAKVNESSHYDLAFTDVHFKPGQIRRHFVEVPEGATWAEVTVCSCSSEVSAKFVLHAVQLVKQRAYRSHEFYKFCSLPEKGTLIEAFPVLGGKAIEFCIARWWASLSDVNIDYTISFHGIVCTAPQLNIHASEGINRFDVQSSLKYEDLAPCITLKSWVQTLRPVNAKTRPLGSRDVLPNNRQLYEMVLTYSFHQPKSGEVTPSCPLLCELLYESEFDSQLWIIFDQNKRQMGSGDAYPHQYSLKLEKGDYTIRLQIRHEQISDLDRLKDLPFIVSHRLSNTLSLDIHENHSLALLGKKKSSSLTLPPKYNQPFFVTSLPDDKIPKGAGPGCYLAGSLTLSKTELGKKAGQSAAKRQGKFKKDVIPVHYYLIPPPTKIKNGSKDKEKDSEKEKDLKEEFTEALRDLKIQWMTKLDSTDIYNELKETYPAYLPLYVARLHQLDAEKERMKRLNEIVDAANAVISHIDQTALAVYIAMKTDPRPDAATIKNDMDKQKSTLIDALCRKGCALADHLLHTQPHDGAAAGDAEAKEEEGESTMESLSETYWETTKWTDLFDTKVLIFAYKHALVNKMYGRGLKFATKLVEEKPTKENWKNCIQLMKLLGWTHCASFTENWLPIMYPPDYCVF
Assay: TPP II peptidase assay: cleavage of fluorogenic substrate AAF-AMC by enriched TPP II
Assay type: biochemical
Details: for cleavage of AAF-AMC in presence of compound, mean: mean of 3 readings; for cleavage of AAF-AMC in presence of compound: single reading
Experimental: In one non-limiting example of purification of TPP II, 100×10^6 cells (such as EL-4 cells) were sedimented and lysed by vortexing in glass beads and homogenisation buffer (50 mM Tris Base pH 7.5, 250 mM Sucrose, 5 mM MgCl2, 1 mM DTT). Cellular lysates were subjected to differential centrifugation; first the cellular homogenate was centrifuged at 14,000 rpm for 15 min, and then the supernatant was transferred to ultra-centrifugation tubes. Next the sample was ultra-centrifugated at 100,000×g for 1 hour, and the supernatant (denoted as cytosol in most biochemical literature) was subjected to 100,000×g centrifugation for 5 hours, which sedimented high molecular weight cytosolic proteins/protein complexes. The resulting pellet dissolved in 50 mM Tris Base pH 7.5, 30% Glycerol, 5 mM MgCl2, and 1 mM DTT, and 1 ug of high molecular weight protein was used as enzyme in peptidase assays.
It is possible to test the activity of TPP II using for example the substrate AAF-AMC (Sigma, St. Louis, Mo.). This may for example be used at 100 uM concentration in 100 ul of test buffer composed of 50 mM Tri Base pH 7.5, 5 mM MgCl2 and 1 mM DTT. It is possible to stop reactions using dilution with 900 ul 1% SDS solution. Cleavage activity may be measured for example by emission at 460 nm in a LS50B Luminescence Spectrometer (Perkin Elmer, Boston, Mass.).
Protein Purification, Peptidase Assays and Analysis of DNA Fragmentation. 100×10^6 cells were sedimented and lysed by vortexing in glass beads and homogenisation buffer (50 mM Tris Base pH 7.5, 250 mM Sucrose, 5 mM MgCl2, 1 mM DTT). Cellular lysates were submitted to differential centrifugation where a supernatant from a 1 hour centrifugation at 100,000×g (cytosol) was submitted to 100,000×g centrifugation for 3-5 hours, which sedimented high molecular weight cytosolic proteins/protein complexes. The resulting pellet dissolved in 50 mM Tris Base pH 7.5, 30% Glycerol, 5 mM MgCl2, and 1 mM DTT, and 1 micro-g of high molecular weight protein was used as enzyme in peptidase assays or in Western blotting for TPP II expression. To test the activity of TPP II we used the substrate AAF-AMC (Sigma, St. Louis, Mo.), at 100 micro-M concentration in 100 micro-l of test buffer composed of 50 mM Tri Base pH 7.5, 5 mM MgCl2 and 1 mM DTT. Cleavage activity was measured by emission at 460 nm in a LS50B Luminescence Spectrometer (Perkin Elmer, Boston, Mass.). For analysis of DNA fragmentation cells were seeded in 12-well plates at 10^6 cells/ml and exposed to 25 micro-M etoposide, a DNA topoisomerase II inhibitor commonly used as an apoptosis-inducing agent, to starvation (50% PBS). Cells were seeded at 10^6 cells/ml in 12-well plates and incubated for the indicated times, usually 18-24 hours. DNA from EL-4 control and adapted cells was purified by standard chloroform extraction, and 2.5 micro-g of DNA was loaded on 1.8% agarose gel for detection of DNA from apoptotic cells.
TPP II protein was enriched, and then a TPP II-preferred fluorogenic substrate AAF-AMC was used. 100×10^6 cells were sedimented and lysed by vortexing in glass beads and homogenisation buffer (50 mM Tris Base pH 7.5, 250 mM Sucrose, 5 mM MgCl2, 1 mM DTT). Cellular lysates were subjected to differential centrifugation; first the cellular homogenate was centrifuged at 14,000 rpm for 15 min, and then the supernatant was transferred to ultra-centrifugation tubes. Next the sample was ultra-centrifugated at 100,000×g for 1 hour, and the supernatant (denoted as cytosol in most biochemical literature) was subjected to 100,000×g centrifugation for 5 hours, which sedimented high molecular weight cytosolic proteins/protein complexes.

CC(C)C[C@H](NC(=O)CNC(=O)OCc1ccccc1)C(=O)N[C@@H](C)C(=O)O [Z-GLA-OH, Z-Gly-Leu-Ala-OH] (HELM PEPTIDE1{[O=C(OCc1ccccc1)[*:2]].G.L.A}$$$$V2.0) was tested. Which “TPPII inhibition, in words” value did it give?
Its value is “efficiently inhibited TPPII”.

And the “cleavage of AAF-AMC in presence of compound, mean” value (“cleavage of AAF-AMC … mean” below) (compound 1 nM)?
Its value is 32.85 fluorometric units.

And the “cleavage of AAF-AMC in presence of compound” value (compound 1 nM)?
Its value is 32.54 fluorometric units and 32.61 fluorometric units and 33.41 fluorometric units.

What about the “cleavage of AAF-AMC … mean” value (compound 10 nM) of the same compound?
Its value is 22.70 fluorometric units.

What about the “cleavage of AAF-AMC in presence of compound” value (compound 10 nM) of the same compound?
Its value is 21.74 fluorometric units and 21.93 fluorometric units and 24.44 fluorometric units.

And the “cleavage of AAF-AMC … mean” value (compound 100 nM)?
Its value is 14.35 fluorometric units.

What about the “cleavage of AAF-AMC in presence of compound” value (compound 100 nM) of the same compound?
Its value is 14.43 fluorometric units and 14.26 fluorometric units and 14.37 fluorometric units.

And the “cleavage of AAF-AMC … mean” value (compound 1 uM)?
The value was 11.60 fluorometric units.

What about the “cleavage of AAF-AMC in presence of compound” value (compound 1 uM) of the same compound?
Its value is 11.43 fluorometric units and 11.9 fluorometric units and 11.46 fluorometric units.

And the “cleavage of AAF-AMC … mean” value (compound 10 uM)?
Its value is 7.21 fluorometric units.

What about the “cleavage of AAF-AMC in presence of compound” value (compound 10 uM) of the same compound?
The value was 6.47 fluorometric units and 7.66 fluorometric units and 7.49 fluorometric units.

And the “cleavage of AAF-AMC … mean” value (compound 100 uM)?
The value was 1.38 fluorometric units.

And the “cleavage of AAF-AMC in presence of compound” value (compound 100 uM)?
The value was 1.14 fluorometric units and 1.44 fluorometric units and 1.55 fluorometric units.

What about the Ki (partially purified TPPII enzyme, fluorimetry, read-out: Ki50, inhibited TPPII cleavage of the substrate AAF-AMC) of the same compound?
The Ki was about 10 nM.
